Reference: the RepoRT retention time repository

Assay: Waters ACQUITY UPLC BEH C18, 100 × 2.1 mm, 1.7 µm, 40 °C, 0.3 to 0.4 mL/min, estimated dead time 0.63 min; A: water + 0.1% formic acid; B: methanol + 0.1% formic acid; gradient (min/%B) 0/0.5 0.1/0.5 10/80 10.1/99.5 12/99.5
Settings: stereoisomer not certain

Compound	LC retention time [min]
CCC1CN2CCc3c([nH]c4cccc(OC)c34)C2CC1C(=COC)C(=O)OC (stereo unspecified)	5.54
CCC=CCC=CC=CC(O)CCCCCCCC(=O)O (stereo unspecified)	9.1
COc1ccc2cc1Oc1ccc(cc1)CC1=NCCc3cc(OC)c(cc31)Oc1c(OC)c(OC)c(OC)c3c1C(C2)N(C)CC3 (stereo unspecified)	4.25
O=C(C=Cc1ccc(O)c(O)c1)OC1CC(O)(C(=O)O)CC(O)C1O (stereo unspecified)	3.13
COc1c(CC=C(C)C)c(O)cc2c1C1Oc3cc(O)c(CC=C(C)C)cc3C1CO2 (stereo unspecified)	9.29
COc1cc(O)c2c(c1)OC(c1ccc(O)c(-c3c(O)cc(O)c4c(=O)cc(-c5ccc(O)cc5)oc34)c1)CC2=O (stereo unspecified)	5.58
NCCc1ccc(O)cc1	1.83
CC=CS(=O)CC(NC=C1OCC(O)C(O)C1O)C(=O)O (stereo unspecified)	1.86
COc1ccc(-c2cc(=O)c3c(O)cc(O)cc3o2)cc1O	6.78
COc1cc2c3cc1Oc1cc(ccc1O)CC1c4c(cc(OC)c(O)c4Oc4ccc(cc4)CC3N(C)CC2)CC[N+]1(C)C (stereo unspecified)	3.41
COc1cc(CCN)ccc1O	2.06
CC(C)=CCc1cc(C2CC(=O)c3c(O)cc(O)c(CC=C(C)C)c3O2)cc(O)c1O (stereo unspecified)	9.09
C=C1CC23CC4C5C6(C)CC(O)CC57C(C2C(O)C1C(O)C37)N4C6 (stereo unspecified)	3.07
CC(C)=CCc1cc(-c2coc3cc(O)ccc3c2=O)ccc1O	7.24
O=C(O)c1cc2c(c3c1c([N+](=O)[O-])cc1ccc(O)cc13)OCO2	5.96
COC(=O)C1C(O)CCC2CN3CCc4c([nH]c5ccccc45)C3CC21 (stereo unspecified)	4.35
COc1cc(C=CC(=O)OC(CC(=O)O)C(=O)O)cc(OC)c1O (stereo unspecified)	4.23
CN(C)CCc1ccc(O)cc1	2.05
COC1OC2c3cc4c(cc3CCN(C)C2c2ccc3c(c21)OCO3)OCO4 (stereo unspecified)	4.65

Compound	LC retention time [min]
NC(CCC(=O)NC(Cc1ccccc1)C(=O)O)C(=O)O (stereo unspecified)	3.04
CC(C)C(N)C(=O)NC(C(=O)O)C(C)C (stereo unspecified)	2.15
CCC(C)C(N)C(=O)NC(CCC(=O)O)C(=O)O (stereo unspecified)	1.98
CC1CCC2(OC1)OC1C(O)C3C4CCC5CC(OC6OC(CO)C(OC7OC(CO)C(O)C(OC8OCC(O)C(O)C8O)C7OC7OC(CO)C(O)C(OC8OC(CO)C(O)C(O)C8O)C7O)C(O)C6O)C(O)CC5(C)C4CCC3(C)C1C2C (stereo unspecified)	6.99
C[n+]1cc2c3c(ccc2c2ccc4cc5c(cc4c21)OCO5)OCO3	4.85
O=C(O)C(Cc1ccc(O)cc1)NCC1(O)OC(CO)C(O)C1O (stereo unspecified)	1.82
COc1cc2c(cc1OC)C1C(C)c3ccc(OC)c(OC)c3CN1CC2 (stereo unspecified)	4.86
CCCCCC(O)C(O)CC=CCCCCCCCC(=O)O (stereo unspecified)	8.39
COc1cccc(C=CC(=O)O)c1	6.03
O=C(O)CCC(NCC1(O)OCC(O)C(O)C1O)C(=O)NC(Cc1ccccc1)C(=O)O (stereo unspecified)	3.16
CCC1CC2CN3CCC4(O)C(=Nc5ccc(OC)cc54)C(C(=O)OC)(C2)C13 (stereo unspecified)	4.01
COc1cc(CC2COC(c3ccc(O)c(OC)c3)C2CO)ccc1O (stereo unspecified)	4.96
NC(CCCCNC(=O)C=Cc1ccc(O)c(O)c1)C(=O)O (stereo unspecified)	2.61
O=c1ccc2cc(OC3OC(CO)C(O)C(O)C3O)c(O)cc2o1 (stereo unspecified)	2.87
COc1ccc2c(c1)OC(O)C(=O)N2O (stereo unspecified)	2.59
O=C(C=Cc1ccccc1)c1ccccc1	9.02
O=C(C=Cc1ccc(O)c(O)c1)OC1CC(OC(=O)C=Cc2ccc(O)c(O)c2)(C(=O)O)CC(O)C1O (stereo unspecified)	3.49
CC1CCC2(NC1)OC1CC3C4CCC5CC(OC6OC(CO)C(OC7OC(CO)C(O)C(OC8OCC(O)C(O)C8O)C7OC7OC(CO)C(O)C(O)C7O)C(O)C6O)CCC5(C)C4CCC3(C)C1C2C (stereo unspecified)	4.81

The remaining lines, values ahead:

LC retention time [min]	Compound
4.65	CC1CCC2C(C)C3C(CC4C5CC=C6CC(OC7OC(CO)C(O)C(OC8OC(CO)C(O)C(O)C8O)C7O)CCC6(C)C5CCC43C)N2C1 (stereo unspecified)
6.82	CC1=C(C)C(=O)OC(C(C)C2(O)CCC3C4C5OC5C5(O)CC=CC(=O)C5(C)C4CCC32C)C1 (stereo unspecified)
4.79	CC(C)=CCCC(C)(OC1OC(CO)C(O)C(O)C1O)C1CCC2(C)C1C(O)CC1C3(C)CCC(O)C(C)(C)C3C(OC3OC(CO)C(O)C(O)C3OC3OC(C)C(O)C(O)C3O)CC12C (stereo unspecified)
2.16	Nc1[nH]c(=O)[nH]c(=O)c1OC1OC(CO)C(O)C(O)C1OC1OC(CO)C(O)C1O (stereo unspecified)
4.52	O=C1CC(c2ccc(O)cc2)Oc2cc(OC3OC(CO)C(O)C(O)C3O)cc(O)c21 (stereo unspecified)
4.72	CC1CCC2(NC1)OC1CC3C4CC=C5CC(OC6OC(CO)C(OC7OC(CO)C(O)C(OC8OCC(O)C(O)C8O)C7OC7OC(CO)C(O)C(O)C7O)C(O)C6O)CCC5(C)C4CCC3(C)C1C2C (stereo unspecified)
5.21	CC1CCC2(C(=O)OC3OC(COC4OC(CO)C(OC5OC(C)C(O)C(O)C5O)C(O)C4O)C(O)C(O)C3O)CCC3(C)C(=CCC4C5(C)CC(O)C(O)C(C)(CO)C5CCC43C)C2C1C (stereo unspecified)
4.5	CC1OC(OC2C(CO)OC(OC3CCC4(C)C(=CC(O)C5C4CCC4(C)C5CC5OC6(CCC(C)(COC7OC(CO)C(O)C(O)C7O)O6)C(C)C54)C3)C(OC3OC(C)C(O)C(O)C3O)C2O)C(O)C(O)C1O (stereo unspecified)
2.71	O=S(=O)(O)ON=C(CC(O)c1ccccc1)SC1OC(CO)C(O)C(O)C1O (stereo unspecified)
6.15	CC1(C(=O)O)CCC2(C)CCC3(C)C(=CCC4C5(C)CCC(OC6OC(C(=O)O)C(O)C(O)C6OC6OC(C(=O)O)C(O)C(O)C6O)C(C)(CO)C5CCC43C)C2C1 (stereo unspecified)
5.73	COc1ccc(-c2coc3cc(OC4OC(CO)C(O)C(O)C4O)cc(O)c3c2=O)cc1 (stereo unspecified)
4.1	COc1ccc2c(c1)OC(OC1OC(CO)C(O)C(O)C1O)C(=O)N2OC (stereo unspecified)
3.72	O=c1c(O)c(-c2ccc(O)c(O)c2)oc2cc(OC3OC(CO)C(O)C(O)C3O)c(O)c(O)c12 (stereo unspecified)
3.15	COc1cc(-c2[o+]c3cc(O)cc(O)c3cc2OC2OC(CO)C(O)C(O)C2O)ccc1O (stereo unspecified)
4.58	COc1c(OC2OC(CO)C(O)C(O)C2O)cc2oc(-c3ccc(O)c(O)c3)c(O)c(=O)c2c1O (stereo unspecified)
5.48	CC(=O)OC1C(C(=O)O)OC(OC2C(O)C(O)OC(CO)C2O)C(O)C1OC1OC(CO)C(O)C(O)C1O (stereo unspecified)
2.75	CC1OC(OCC2OC(Oc3cc4c(O)cc(O)cc4[o+]c3-c3ccc(O)c(O)c3)C(OC3OC(CO)C(O)C(O)C3O)C(O)C2O)C(O)C(O)C1O (stereo unspecified)

LC retention time [min]	Compound
3.59	O=c1cc(-c2ccc(O)c(O)c2)oc2cc(O)c(C3OC(CO)C(O)C(O)C3O)c(O)c12 (stereo unspecified)
5.1	CC(CCC1(O)OC2CC3C4CC=C5CC(OC6OC(COC7OC(C)C(O)C(O)C7OC7OC(C)C(O)C(O)C7OC7OC(C)C(O)C(O)C7O)C(O)C(O)C6O)CCC5(C)C4CCC3(C)C2C1C)COC1OC(CO)C(O)C(O)C1O (stereo unspecified)
2.77	OCC1OC(OC2C(Oc3cc4c(O)cc(O)cc4[o+]c3-c3ccc(O)c(O)c3)OC(CO)C(O)C2O)C(O)C(O)C1O (stereo unspecified)
4.34	CC1OC(OC2C(Oc3cc(O)c4c(=O)cc(-c5ccc(O)cc5)oc4c3)OC(CO)C(O)C2O)C(O)C(O)C1O (stereo unspecified)
4.13	O=c1cc(-c2ccc(O)cc2)oc2cc(OC3OC(CO)C(O)C(O)C3O)c(O)c(O)c12 (stereo unspecified)
6.14	CC(C)=CCCC(C)(OC1OC(COC2OCC(O)C(O)C2O)C(O)C(O)C1O)C1CCC2(C)C1C(O)CC1C3(C)CCC(OC4OC(CO)C(O)C(O)C4OC4OC(CO)C(O)C(O)C4O)C(C)(C)C3CCC12C (stereo unspecified)
5.81	CC1(C)CC2C3=CCC4C5(C)CCC(OC6OC(C(=O)O)C(O)C(O)C6OC6OC(CO)C(O)C(O)C6OC6OC(CO)C(O)C(O)C6O)C(C)(CO)C5CCC4(C)C3(C)CCC2(C)C(O)C1O (stereo unspecified)
3.77	C=CC1C(OC2OC(CO)C(O)C(O)C2O)OC=C2C(=O)N3CCC(=O)c4ccccc4NC(=O)C3CC21 (stereo unspecified)
4.48	CC1OC(Oc2c(-c3ccc(O)c(O)c3)oc3cc(OC4OC(CO)C(O)C(O)C4O)cc(O)c3c2=O)C(OC2OC(COC(=O)C=Cc3ccc(O)cc3)C(O)C(O)C2O)C(O)C1O (stereo unspecified)
3.65	CC1OC(OCC2OC(Oc3c(-c4ccc(O)c(O)c4)oc4cc(O)cc(O)c4c3=O)C(OC3OCC(O)C(O)C3O)C(O)C2O)C(O)C(O)C1O (stereo unspecified)
5.18	COc1ccc(CC2COC(=O)C2Cc2ccc(OC3OC(CO)C(O)C(O)C3O)c(OC)c2)cc1OC (stereo unspecified)
4.21	COc1cc(C=CC(=O)OCC2OC(OC3C(c4c(O)cc5oc(-c6ccc(O)cc6)cc(=O)c5c4O)OC(CO)C(O)C3O)C(O)C(O)C2O)ccc1O (stereo unspecified)
5.38	CC1OC(OC2C(CO)OC(OCC3OC(OC(=O)C45CCC(C)(C)CC4C4=CCC6C7(C)CCC(OC8OCC(O)C(O)C8OC8OC(C)C(O)C(O)C8O)C(C)(CO)C7CCC6(C)C4(C)CC5)C(O)C(O)C3O)C(O)C2O)C(O)C(O)C1O (stereo unspecified)
3.94	C=CC1C(OC2OC(CO)C(O)C(O)C2O)OC=C(C(=O)O)C1CC1NCCc2c1[nH]c1ccccc21 (stereo unspecified)
7.38	CC1OC(OC2C(OC3CCC4(C)C(=CCC5C4CCC4(C)C5CC5OC6(CCC(COC(=O)CC(C)(O)CC(=O)O)CO6)C(C)C54)C3)OC(CO)C(O)C2O)C(O)C(O)C1O (stereo unspecified)
7.84	CC1(C)CC(=O)C2(C)CCC3(C)C(=CCC4C5(C)CCC(OC6OC(C(=O)O)C(O)C(O)C6OC6OC(CO)C(O)C(O)C6O)C(C)(CO)C5CCC43C)C2C1 (stereo unspecified)
6.19	CCC(C)=CCCC(C)(OC1OC(COC2OCC(O)C(O)C2O)C(O)C(O)C1O)C1CCC2(C)C3CCC4C(C)(C)C(OC5OC(CO)C(O)C(O)C5OC5OC(CO)C(O)C(O)C5O)CCC4(C)C3CC(O)C12 (stereo unspecified)
